Test results: patent publication US12364674B2, “Compounds and combinations thereof for treating neurological and psychiatric conditions” (priority 2022, dated 2025)
Where a name gives a salt, the structure may show the parent alone. Read-outs that look alike come from different tables or passages of the source.

Columns and labels:
[1] = human, in vivo
[2] = human, in vivo; remark: listed apart in the source
[3] = Example 2: pharmacokinetics of the subject combination in CYP2D6 poor metabolizers; settings: 3 CYP2D6 poor metabolizers
Text: Approximately 7 to 10% of Caucasians and 3 to 8% of African Americans lack the capacity to metabolize CYP2D6 substrates and are classified as poor metabolizers.

[4] = Example 3: co-administration of paroxetine and the subject combination in healthy volunteers
Text: Co-administration of the SSRI paroxetine and the subject combination was studied in 29 healthy volunteers.

[5] = Example 1: subject combination in subjects with moderate renal impairment vs matched controls; settings: moderate renal impairment (GFR 30-60 mL/min)
[6] = Steady-state pharmacokinetics of dextromethorphan, bupropion and metabolites after administration of the subject combination; settings: for changes in AUC and Cmax with dose (dose proportionality): steady state, co-administered with bupropion
[7] = Example 4: exposure to the 45 mg dextromethorphan hydrobromide/105 mg bupropion hydrochloride tablet in moderate renal impairment (FIG. 1); settings: 8 days of twice daily dosing of the tablet

With `CC(NC(C)(C)C)C(=O)c1cccc(Cl)c1.Cl` (racemic) [bupropion, (±)-1-(3-chlorophenyl)-2-[(1,1-dimethylethyl)amino]-1-propanone hydrochloride] the “increase of exposure vs matched controls with normal renal function” value [1] was “approximately 2 fold”, the “reduction of clearance vs matched controls with normal renal function” value [1] was 50% and the “increase in AUC0-12 (GMR vs matched healthy subjects)” value [2] was 1.80 fold. The “increase in Cmax (GMR vs matched healthy subjects)” value [2] was 1.87 fold.
For `COc1ccc2c(c1)[C@]13CCCC[C@@H]1[C@H](C2)N(C)CC3` [dextromethorphan, morphinan, 3-methoxy-17-methyl-, (9α, 13α, 14α), hydrobromide monohydrate], the “increase in AUC0-12 compared to extensive metabolizers” value [3] was roughly 3.4 fold, the “increase in Cmax compared to extensive metabolizers” value [3] was roughly 3 fold and the “change of overall exposure on co-administration of paroxetine” value ([4]; 29 healthy volunteers, paroxetine with the subject combination) was 2.5 fold. The “reduction of clearance vs matched controls with normal renal function” value [5] was 50%, the “increase of exposure vs matched controls with normal renal function” value ([5]; 7 subjects vs 6 controls) was “approximately 2 fold” and the “increase of mean elimination half-life compared to dextromethorphan given without bupropion” value ([6]; 8 days of administration of the subject combination, extensive metabolizers) was “approximately 3 fold”. For the same compound, the “changes in AUC and Cmax with dose (dose proportionality)” value ([6]; varying doses of bupropion (75 to 150 mg)) was “less than dose-proportional”, the “changes in AUC and Cmax with dose (dose proportionality)” value ([6]; varying doses of dextromethorphan (30 to 60 mg)) was “greater than dose-proportional” and the mean elimination half-life ([6]; subject combination) was 22 h. The “increase in AUC0-12 (GMR vs matched healthy subjects)” value [7] was 2.21 fold and the “increase in Cmax (GMR vs matched healthy subjects)” value [7] was 2.10 fold.
For `Fc1ccc([C@@H]2CCNC[C@H]2COc2ccc3c(c2)OCO3)cc1` [paroxetine], the “increase of overall exposure of paroxetine when co-administered with the subject combination” value ([4]; human, in vivo) was 1.2 fold.
